According to PMC8421423, “Cellular model system to dissect the isoform-selectivity of Akt inhibitors” (Nature Communications, 2021):
Where “and” joins values, the source holds several entries; their conditions need not be identical. Equal entries are not always repeated. Where two headings read alike, the source gives them in different places.

How the values were obtained:
[1] = tested on: Ba/F3^myr-Akt2 cells; assay: CellTiter-Glo cell viability assay
[2] = target: T1, Akt1 (Homo sapiens, UniProt P31749); assay: STK HTRF KinEASE activity-based assay (IC50); conditions: for Log ratio IC50 [Akt] / IC50 [Akt], Akt1 / Akt2: biochemical activity based assay, log units
T1 sequence (P31749 whole entry): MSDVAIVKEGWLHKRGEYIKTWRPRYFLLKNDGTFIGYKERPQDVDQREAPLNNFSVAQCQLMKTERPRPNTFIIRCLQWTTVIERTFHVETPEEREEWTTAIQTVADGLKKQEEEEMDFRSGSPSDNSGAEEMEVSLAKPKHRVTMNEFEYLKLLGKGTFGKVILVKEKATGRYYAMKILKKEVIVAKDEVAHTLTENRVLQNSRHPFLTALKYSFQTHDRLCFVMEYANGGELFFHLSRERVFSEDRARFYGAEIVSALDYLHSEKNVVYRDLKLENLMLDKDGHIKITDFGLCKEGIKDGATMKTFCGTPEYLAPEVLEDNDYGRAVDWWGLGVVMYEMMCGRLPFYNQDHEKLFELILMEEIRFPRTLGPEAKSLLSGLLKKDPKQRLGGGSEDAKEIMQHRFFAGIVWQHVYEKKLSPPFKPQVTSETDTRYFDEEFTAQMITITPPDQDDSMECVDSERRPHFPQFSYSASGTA

[3] = tested on: Ba/F3^myr-Akt1 cells; assay: CellTiter-Glo cell viability assay; conditions: for Log ratio EC50 [Akt] / EC50 [Akt], Akt1 / Akt2: cell viability assay Ba/F3 myr-Akt cells, log units
[4] = target: Akt3 (Homo sapiens, UniProt Q9Y243); assay: STK HTRF KinEASE activity-based assay (IC50)
Sequence of Akt3 (Q9Y243 whole entry): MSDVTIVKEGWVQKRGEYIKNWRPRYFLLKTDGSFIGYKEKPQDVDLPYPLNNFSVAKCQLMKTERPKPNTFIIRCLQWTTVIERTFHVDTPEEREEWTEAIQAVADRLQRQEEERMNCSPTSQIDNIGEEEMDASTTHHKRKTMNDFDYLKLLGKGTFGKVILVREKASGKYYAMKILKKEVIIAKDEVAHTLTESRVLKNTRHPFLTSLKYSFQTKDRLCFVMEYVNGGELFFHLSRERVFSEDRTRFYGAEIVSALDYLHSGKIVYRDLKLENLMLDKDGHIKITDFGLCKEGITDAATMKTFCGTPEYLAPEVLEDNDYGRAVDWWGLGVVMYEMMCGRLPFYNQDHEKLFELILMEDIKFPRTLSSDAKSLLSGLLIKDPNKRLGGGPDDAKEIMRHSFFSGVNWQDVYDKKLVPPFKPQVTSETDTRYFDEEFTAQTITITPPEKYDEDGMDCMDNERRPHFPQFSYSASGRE

[5] = tested on: parental Ba/F3 cells; assay: CellTiter-Glo cell viability assay; format: cell-based, murine
[6] = target: T2, Akt2 (Homo sapiens, UniProt P31751); assay: STK HTRF KinEASE activity-based assay (IC50)
T2 sequence (P31751 whole entry): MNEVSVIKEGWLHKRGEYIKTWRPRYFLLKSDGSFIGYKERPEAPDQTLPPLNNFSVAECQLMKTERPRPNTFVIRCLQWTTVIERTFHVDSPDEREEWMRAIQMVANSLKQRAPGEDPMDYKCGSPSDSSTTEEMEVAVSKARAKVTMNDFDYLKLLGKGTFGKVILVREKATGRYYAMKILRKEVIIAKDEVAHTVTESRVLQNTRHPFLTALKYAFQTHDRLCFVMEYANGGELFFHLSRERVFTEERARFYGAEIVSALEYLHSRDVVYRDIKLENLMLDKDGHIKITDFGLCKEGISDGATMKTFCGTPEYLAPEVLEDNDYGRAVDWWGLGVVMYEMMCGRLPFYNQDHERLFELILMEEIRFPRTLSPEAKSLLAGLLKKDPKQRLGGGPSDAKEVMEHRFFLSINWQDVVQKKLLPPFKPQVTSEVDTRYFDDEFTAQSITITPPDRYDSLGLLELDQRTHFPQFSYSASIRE

[7] = target: T1, Akt1; assay: PhosphoSens continuous fluorometric kinetic enzyme assay
Method: (§1) By addition of either 8 nM Akt1, 2 nM Akt2, or 5 nM Akt3 (final concentrations) the reactions were initiated. […] Afterwards the kobs-values were plotted versus the inhibitor concentrations [I] and then fit to the following hyperbolic Eq.

[8] = tested on: Ba/F3^myr-Akt3 cells; assay: CellTiter-Glo cell viability assay; conditions: for Log ratio EC50 [Akt] / EC50 [Akt], Akt3 / Akt2: cell viability assay Ba/F3 myr-Akt cells, log units
Method: On day 0, cells were plated into white 384-well cell culture plates (Greiner Bio-One) using a Multidrop reagent dispenser (Thermo Fisher Scientific) at cell numbers that ensure linear and optimal luminescent signal intensity (Ba/F3myr-Akt1: 600 cells/well, Ba/F3myr-Akt2: 800 cells/well, Ba/F3myr-Akt3: 800 cells/well). […] Cell viability was analyzed on day 4 using the CellTiter-Glo Assay (Promega) as per the manufacturer’s instructions. […] All experimental points were measured in duplicates for each plate and were replicated in at least three plates.

[9] = target: T2, Akt2; assay: PhosphoSens continuous fluorometric kinetic enzyme assay
Method: as §1

[10] = Mus musculus, read-out: CTG BaF3myr-Akt2, Mean, mean of replicates
[11] = read-out: CTG BaF3myr-Akt2, individual determinations, single replicates
[12] = HTRF IC50 Akt1, Mean, mean of replicates
[13] = HTRF IC50 Akt1, individual determinations, single replicates
[14] = IC50 Akt1, HTRF, ATP at KM, 1 h preincubation
[15] = read-out: CTG BaF3myr-Akt1, individual determinations, single replicates
[16] = HTRF IC50 Akt3, Mean, mean of replicates
[17] = HTRF IC50 Akt3, individual determinations, single replicates
[18] = IC50 Akt3, HTRF, ATP at KM, 1 h preincubation
[19] = Mus musculus, BaF3, parental cells, single replicates, read-out: CTG BaF3, individual determinations
[20] = parental cells, single replicates, read-out: CTG BaF3, individual determinations
[21] = HTRF IC50 Akt2, Mean, mean of replicates
[22] = HTRF IC50 Akt2, individual determinations, single replicates
[23] = IC50 Akt2, HTRF, ATP at KM, 1 h preincubation
[24] = Mus musculus, read-out: CTG BaF3myr-Akt3, Mean, mean of replicates
[25] = read-out: CTG BaF3myr-Akt3, individual determinations, single replicates
[26] = Ki Akt2, Mean, mean of replicates
[27] = Ki Akt2, individual determinations, single replicates
[28] = read-out: kinact /Ki Akt2, individual determinations, single replicates
[29] = read-out: kinact Akt2, individual determinations, single replicates

SMILES | EC50 [1, 10] | EC50 [1, 11] | IC50 [2, 12] | IC50 [2, 13] | IC50 [2, 14] | Log ratio IC50 [Akt] / IC50 [Akt], Akt1 / Akt2 [2] | Log ratio EC50 [Akt] / EC50 [Akt], Akt1 / Akt2 [3] | EC50 [3, 15] | IC50 [4, 16] | IC50 [4, 17] | IC50 [4, 18] | EC50 [5, 19] | EC50 [5, 20] | IC50 [6, 21] | IC50 [6, 22] | IC50 [6, 23] | EC50 [8, 24] | Log ratio EC50 [Akt] / EC50 [Akt], Akt3 / Akt2 [8] | EC50 [8, 25] | Ki ([9]; Ki Akt2) | also measured
C=CC(=O)Nc1ccc2[nH]c(=O)n(C3CCN(Cc4ccc(-c5ncc(C(=O)Nc6cccc(N)c6)cc5-c5ccccc5)cc4)CC3)c2c1 [compound 18] | 1.48 µM | 1.64 µM and 2.11 µM and 0.691 µM | 0.0906 µM | 0.106 µM and 0.0737 µM and 0.0923 µM | 0.091 ± 0.013 µM | 0.37 | 1.08 | 14.1 µM and 13.1 µM and 26.3 µM | 5.27 µM | 3.82 µM and 6.13 µM and 5.85 µM | 5.27 ± 1.03 µM | > 30 µM | > 30 µM | 0.0384 µM | 0.0367 µM and 0.0479 µM and 0.04 µM | 0.039 ± 0.006 µM | 18.2 µM | -1.09 | 10.3 µM and 26 µM and 21.5 µM | 0.011 ± 0.002 µM | EC50 ([3]; Mus musculus, read-out: CTG BaF3myr-Akt1, Mean, mean of replicates): 17.8 µM; EC50 ([5]; Mus musculus, BaF3, CTG, parental BaF3 cell line, read-out: EC50 BaF3): > 30 µM; EC50 ([5]; Mus musculus, BaF3, parental cells, mean of replicates, read-out: CTG BaF3, Mean): > 30 µM; Ki ([7]; Ki Akt1): 0.006 ± 0.001 µM; Ki ([7]; Ki Akt1, Mean, mean of replicates): 0.00662 µM; Ki ([7]; Ki Akt1, individual determinations, single replicates): 0.0042 µM and 0.0078 µM and 0.0079 µM; kinact/KI ([7]; read-out: kinact /Ki Akt1): 32000 ± 5000 M⁻¹ s⁻¹; kinact/KI ([7]; read-out: kinact /Ki Akt1, Mean, mean of replicates): 44000 M⁻¹ s⁻¹; kinact ([7]; read-out: kinact Akt1): 0.000167 s⁻¹; kinact ([7]; read-out: kinact Akt1, Mean, mean of replicates): 0.000267 s⁻¹; kinact ([7]; read-out: kinact Akt1, individual determinations, single replicates): 0.000267 s⁻¹; kinact Akt1, individual determinations ([7]; single replicates): 0.014 min⁻¹ and 0.018 min⁻¹; Ki [9, 26]: 0.0113 µM; Ki [9, 27]: 0.0101 µM and 0.0102 µM and 0.0136 µM; kinact/KI ([9]; read-out: kinact /Ki Akt2): 15000 ± 1000 M⁻¹ s⁻¹; kinact/KI ([9]; read-out: kinact /Ki Akt2, Mean, mean of replicates): 15000 M⁻¹ s⁻¹; kinact/KI [9, 28]: 15000 M⁻¹ s⁻¹; kinact ([9]; read-out: kinact Akt2): 0.000167 s⁻¹; kinact [9, 29]: 0.00015 s⁻¹; kinact Akt2, individual determinations ([9]; single replicates): 0.009 min⁻¹ and 0.013 min⁻¹
C=CC(=O)Nc1ccc2[nH]c(=O)n(C3CCN(Cc4ccc(-c5ncc(C(=O)NCC(C)C)cc5-c5ccccc5)cc4)CC3)c2c1 [compound 10] | 7.99 µM | 5.41 µM and 9.28 µM | 1.72 µM | 1.89 µM and 1.69 µM and 1.56 µM | 1.72 ± 0.166 µM | 1.26 | 0.52 | 28.8 µM and 21.1 µM | 1.56 µM | 1.65 µM and 1.47 µM and 1.57 µM | 1.56 ± 0.075 µM | 15.3 µM | 19.4 µM and > 30 µM | 0.0937 µM | 0.0924 µM and 0.0898 µM and 0.0989 µM | 0.094 ± 0.004 µM | 24.3 µM | -0.48 | 25.7 µM and 21.8 µM | 0.004 ± 0.001 µM | EC50 ([1]; Mus musculus, read-out: CTG BaF3myr-Akt2, individual determinations, single replicates): 7.98 µM; EC50 ([3]; Mus musculus, read-out: CTG BaF3myr-Akt1, individual determinations, single replicates): > 30 µM; EC50 ([8]; Mus musculus, read-out: CTG BaF3myr-Akt3, individual determinations, single replicates): 25.3 µM; Ki [9, 26]: 0.00418 µM; Ki [9, 27]: 0.0051 µM and 0.0041 µM and 0.0033 µM; kinact/KI ([9]; read-out: kinact /Ki Akt2): 25000 ± 5000 M⁻¹ s⁻¹; kinact/KI [9, 28]: 27000 M⁻¹ s⁻¹; kinact ([9]; read-out: kinact Akt2): 0.0001 s⁻¹; kinact ([9]; read-out: kinact Akt2, Mean, mean of replicates): 0.0001 s⁻¹; kinact [9, 29]: 0.000133 s⁻¹; kinact Akt2, individual determinations ([9]; single replicates): 0.00457 min⁻¹ and 0.006 min⁻¹
